Measurements published in patent US7579343B2, “Pyrrolo-thiazines and processes for the preparation and use thereof” (Board of Trustees of Michigan State University, priority 2005, dated 2009).

Tests used:
E. faecalis 51299 = test: antibacterial activity, standard MIC testing procedure; format: cell-based
Procedure: (§1) It was assayed according to the standard MIC testing procedure for antimicrobials.

S. aureus 43300 = test: as above; format: cell-based
Procedure: as §1

E. faecalis 29212 = test: as above; format: cell-based
Procedure: as §1

β-ribosidase [1] = test: β-ribosidase inhibition assay with DHF-riboside substrate, bacterial lysate; format: biochemical, Salmonella sp.35664; details: for threshold value for the inhibitor concentration over which no inhibition is observed: lysate of Salmonella sp.35664, DHF-riboside, over a 24 hour period
Procedure: (§2) The hydrolysis of β-riboside under catalysis by β-ribosidases features an oxocarbenium ion transition state, similar to nucleoside hydrolases, nucleoside phosphorylases and related enzymes. The β-ribosidase inhibitory properties of 6, 7 and 8 were evaluated using 3′,4′-dihydroxyflavone-4′-β-D-ribofuranoside 16 (DHF-riboside) as the substrate and bacterial lysates or whole cells as the source of β-ribosidase. The hydrolysis of this chromogenic substrate can be catalyzed by β-ribosidases to release 3′,4′-dihydroxyflavone, which forms a highly colored chelate with iron.^23
(§3) Compounds 6-8 were evaluated for their ability to inhibit the action of β-ribosidases produced by Gram negative bacteria. There are no commercially available β-ribosidases and it is the usual course to use intrinsic ribosidase activities from actual bacteria or bacterial cell lysates. Ribosidase inhibition assays were performed using Salmonella sp.35664 to produce β-ribosidase enzymes. Both whole cells and lysed bacteria were tested. Ribosidase activity is indicated by a purple color formed by complexation of the freed phenol with ferric ions. FIGS. 7A and 7B are (7A) absorbance of the assay mixture produced by a lysate of Salmonella sp.35664 with 3′,4′-dihydroxyflavone-4′-β-D-ribofuranoside in the presence of 6 in concentrations from 0 to 15 μg/μL over a 24 hour period. (7B) Absorbance of the assay mixture in the presence of 7. Note that the differences in inhibition between the two are marginal at higher inhibitor concentrations. Note also that in both cases there is a threshold value of 0.9 μg/μL for the inhibitor concentration over which no inhibition is observed. The more inhibition of the enzyme, the less cleavage of the substrate.
(§4) Inhibitory potency was determined by spectrophotometrically measuring the residual hydrolytic activities of the bacterial produced β-ribosidase 2. The bacterium used to produce β-ribosidase was Salmonella sp.35664, both whole cell and lysed strains. 3′,4′-Dihydroxyflavone-4′-β-D-ribofuranoside 15 (DHF-riboside) was used as substrate. The assay was performed in a PBS buffer at pH 7.0, 37° C. Serial dilutions were made of the inhibitors to a final concentration of 0.2μg/μL to 15μg/μL in each assay solution. The strain was grown to mid exponential phase and removed from the media and rediluted in PBS buffer. Inhibition studies were performed by adding each strain to the respective buffer solutions along with DHF-riboside, ferric ammonium citrate and inhibitors. For compound 6 and 7, 10% DMSO solution was used to increase the solubility. The solutions were incubated at 37° C. and the absorbance of the complex formed between released 3′,4′-dihydroxyflavone and iron was determined at 387 nm at time 15 min, 30 min, 45 min, 60 min, 75 min, 90 min, 105 min, 2 hours, 2.5 hours, 3.0. hours, 4.0. hours, 4.5 hours, 5 hours, 20 hours, and 24 hours.

β-ribosidase [2] = test: β-ribosidase inhibition assay with DHF-riboside substrate, whole cells; format: cell-based, Salmonella sp.35664
Procedure: as §2, §3
In the case of compound 7, no inhibition is also observed for the 3.8 μg/μL inhibitor concentration. There are only minor differences for the inhibitory properties of the two compounds at the higher concentrations.
as §4

Row | Structure (SMILES) | inhibition at 0.49 µg/mL (E. faecalis 51299; Enterococcus faecalis, 51299, 0.49 μg/ml, read-out: inhibition of bacterial growth) [%] | antibacterial activity (in words) (E. faecalis 51299; initial dilute concentration) | inhibition at 0.49 µg/mL (S. aureus 43300; Staphylococcus aureus, 43300, 0.49 μg/ml, read-out: inhibition of bacterial growth) [%] | antibacterial activity (in words) (S. aureus 43300; initial dilute concentration) | inhibition at 0.49 µg/mL (E. faecalis 29212; Enterococcus faecalis, 29212, 0.49 μg/ml, read-out: inhibition of bacterial growth) [%] | antibacterial activity (in words) (E. faecalis 29212; initial dilute concentration) | β-ribosidase inhibition activity (in words) (β-ribosidase [1]; lysate) | β-ribosidase inhibition activity (in words) (β-ribosidase [2]; whole cell) | threshold value for the inhibitor concentration over which no inhibition is observed (β-ribosidase [1]) [µg/µL] | inhibition at 3.8 μg/μL inhibitor concentration (β-ribosidase [2]; whole cells, 3.8 μg/μL) | concentration at which fifty percent inhibition was observed (β-ribosidase [1]; lysate) [µg/µL] | inhibition of β-ribosidases (β-ribosidase [1]; lysate, 15 μg/μL (67 mM), at 24 hours) | concentration at which fifty percent inhibition was observed (β-ribosidase [2]; whole cell) [µg/µL] | inhibition of β-ribosidases (β-ribosidase [2]; whole cell, 15 μg/μL (67 mM), at 24 hours)
1 | O[C@H]1[C@@H](O)CN2CCSC[C@@H]12 [Compound 8, 7(S)-8(R),9(S)-dihydroxy-hexahydro-1H-pyrrolo-[1,4]-thiazine] | 50 | good inhibition | 70 | good inhibition | 50 | good inhibition | no significant inhibition | no significant inhibition | – | – | – | – | – | –
2 | O[C@@H]1[C@H]2CSc3ccccc3N2C[C@@H]1O [Compound 7, 2(R)-3(R),4(S)-dihydroxy-2,3,3a,4-tetrahydro-1H-pyrrolo-[2,1-c][1,4]benzothiazine] | – | – | – | – | – | – | comparable | comparable | 0.9 | no inhibition | – | – | – | –
3 | O[C@H]1[C@@H](O)CN2c3ccccc3SC[C@@H]12 [Compound 6, 2(S),3(R),4(S)-dihydroxy-2,3,3a,4-tetrahydro-1H-pyrrolo-[2,1-c][1,4]benzothiazine] | – | – | – | – | – | – | – | good inhibitory activity | 0.9 | – | 7.5 | About 70% | 7.5 | About 70%
